Data published in patent publication US7645784B2, “Benzimidazole derivatives” (AstraZeneca AB, priority 2003, dated 2010).

Target: T1, hVR1 (Homo sapiens, UniProt Q8NER1)
T1 construct: expressed in transfected cells
Test: hVR1 FLIPR (Fluorometric Image Plate Reader) screening assay, IC50 determination
Type: cell-based
Conditions: CHO cells stably expressing hVR1
Protocol: 1. hVR1 FLIPR (Fluorometric Image Plate Reader) screening assay
Transfected CHO cells, stably expessing hVR1 (15,000 cells/well) are seeded in 50 μL media in a black clear bottom 384 plate (Greiner) and grown in a humidified incubator (37° C., 2% CO2), 24-30 hours prior to experiment.
Subsequently, the media is removed from the cell plate by inversion and 2 μM Fluo-4 is added using a multidrop (Labsystems). Following the 40 min dye incubation in the dark at 37° C. and 2% CO2, the extracellular dye present is washed away using an EMBLA (Scatron), leaving the cells in 40 μL of assay buffer (1×HBSS, 10 mM D-Glucose, 1 mM CaCl2,10 mM HEPES, 10×7.5% NaHCO3 and 2.5 mM Probenecid).
FLIPR assay—IC50 determination protocol
For IC50 determinations the fluorescence is read using FLIPR filter 1 (em […]). A cellular baseline recording is taken for 30 seconds, followed by a 20 μL addition of 10, titrated half-log concentrations of the test compound, yielding cellular concentration ranging from 3 μM to 0.1 nM. Data is collected every 2 seconds for a further 5 min prior to the addition of a VR1 agonist solution: either 50 nM solution of capsaicin or MES (2-[N-morpholino]ethanesulfonic acid) buffer (pH 5.2), by the FLIPR pipettor. The FLIPR continues to collect data for a further 4 min. Compounds having antagonistic properties against the hVR1 will inhibit the increase in intracellular calcium in response to the capsaicin addition. This consequently leading to a reduction in fluorescence signal and providing a reduced fluorescence reading, compared with no compound, buffer controls. Data is exported by the FLIPR program as a sum of fluorescence calculated under the curve upon the addition of capsaicin. Maximum inhibition, Hill slope and IC50 data for each compound are generated.

T1 sequence (Q8NER1 whole entry): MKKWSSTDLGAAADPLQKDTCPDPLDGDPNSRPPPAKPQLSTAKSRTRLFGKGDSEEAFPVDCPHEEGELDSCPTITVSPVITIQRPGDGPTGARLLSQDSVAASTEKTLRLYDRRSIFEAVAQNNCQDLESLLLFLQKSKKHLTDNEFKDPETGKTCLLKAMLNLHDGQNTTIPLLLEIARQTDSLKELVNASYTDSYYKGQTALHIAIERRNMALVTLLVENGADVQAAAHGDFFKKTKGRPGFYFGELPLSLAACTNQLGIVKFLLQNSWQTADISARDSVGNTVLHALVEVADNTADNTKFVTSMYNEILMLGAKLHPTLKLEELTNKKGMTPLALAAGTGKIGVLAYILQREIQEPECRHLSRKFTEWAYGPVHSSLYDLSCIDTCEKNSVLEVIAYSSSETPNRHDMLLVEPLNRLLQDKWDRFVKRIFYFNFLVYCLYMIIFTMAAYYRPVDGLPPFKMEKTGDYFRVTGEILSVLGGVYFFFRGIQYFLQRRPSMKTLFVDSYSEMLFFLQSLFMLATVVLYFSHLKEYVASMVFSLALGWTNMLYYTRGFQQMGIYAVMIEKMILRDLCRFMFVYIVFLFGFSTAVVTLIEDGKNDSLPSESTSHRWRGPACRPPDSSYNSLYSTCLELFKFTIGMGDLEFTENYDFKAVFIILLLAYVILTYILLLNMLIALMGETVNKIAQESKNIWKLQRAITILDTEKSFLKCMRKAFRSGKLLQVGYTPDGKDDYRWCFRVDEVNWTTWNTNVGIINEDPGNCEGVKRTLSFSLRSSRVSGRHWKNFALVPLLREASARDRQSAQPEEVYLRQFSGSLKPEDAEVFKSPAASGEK

SMILES | IC50 (agonist H+/MES buffer (pH 5.2)) [nM] | IC50 (agonist capsaicin) [nM]
O=C(Cn1cnc2cccc([N+](=O)[O-])c21)Nc1cc(F)cc(F)c1 [Example 7, N-(3,5-Difluorophenyl)-2-(7-nitro-1H-benzimidazol-1-yl)acetamide] | 70 | 50
COC(=O)c1cccc2ncn(CC(=O)Nc3cc(OC)cc(OC)c3)c12 [Example 67, Methyl 1-{2-[(3,5-dimethoxyphenyl)amino]-2-oxoethyl}-1H-benzimidazole-7-carboxylate] | 140 | 160
